According to PMC6762200, “Discovery of novel West Nile Virus protease inhibitor based on isobenzonafuranone and triazolic derivatives of eugenol and indan-1,3-dione scaffolds” (PLoS ONE, 2019):

Experiments:
[1] = target: T1, WNV NS2B-NS3 protease (NS2B-NS3pro) (West Nile virus strain NY-99, UniProt Q9Q6P4); assay: fluorogenic protease assay, pERTKR-AMC, nonlinear fit in competitive mode; format: biochemical
T1 construct: gene GP1; cut from WNV genome polyprotein; with Serine protease subunit NS2B (cofactor region)
T1 sequence (Q9Q6P4 1423-1469): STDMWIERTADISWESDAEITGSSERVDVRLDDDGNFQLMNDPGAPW
T1 sequence (Q9Q6P4 1506-1689): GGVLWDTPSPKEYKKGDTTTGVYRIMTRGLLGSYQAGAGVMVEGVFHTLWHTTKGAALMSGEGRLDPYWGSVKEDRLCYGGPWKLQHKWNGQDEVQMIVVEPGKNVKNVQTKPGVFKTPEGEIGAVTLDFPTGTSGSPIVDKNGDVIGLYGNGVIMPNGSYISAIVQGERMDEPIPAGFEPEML

[2] = target: T1, WNV NS2B-NS3 protease (NS2B-NS3pro); assay: fluorogenic protease assay, pERTKR-AMC, four-parameter fit, […] concentrations; format: biochemical

C=CCc1ccc(OCc2cn(Cc3ccccc3Br)nn2)c(OC)c1 [compound 35, 4-((4-allyl-2-methoxyphenoxy)methyl)-1-(2-bromobenzyl)-1H-1,2,3-triazole]
Ki [1]: 3.06 µM | IC50 [2]: 6.86 µM
